The text below walks through data of US20170368182A1, “Pharmaceutical Semi-Solid Gels with Entrapped Calcium Phosphate Nanoparticles” (Belmont University, priority 2014, published 2017).

Counter-ions that a name gives are not always drawn. Like-named read-outs stand apart in the source and are kept apart here.

Data set [1] in a line: Osmolality contribution of gel components. Type of data set: physicochemical. To be noted: 0.68% timolol maleate; 0.5% carbomer 980 calculated from 0.3% carbomer 934. On the procedure:
The exact osmolality 0.5% carbomer 980 gel was not known, but it was calculated using the osmolality of 0.3% carbomer 934.^19 The 0.68% timolol maleate contributes 31.4 mOsm and the carbomer contributes approximately 42 mOsm. To make the gel isotonic, 4.1 g of 5% dextrose would need to be added to obtain an isotonic gel with a tonicity of 300 mOsm. However, the results of this experiment will be compared to the results of a similar experiment using carboxymethylcellulose, CMC. […] The gel was thoroughly mixed by hand and then with a stir bar and magnetic stirrer to ensure uniformity.
Also, to make the concentrated 9% of the polymer to create enough for 3 gels, 9 g of the polymer was added to a 250 ml beaker. The polymer was hydrated with distilled water to 180 ml which took 1 hour to dissolve through the use of magnetic stirrer and stirring by hand. Next, 0.68 g of timolol maleate salt was added to the beaker with 60 ml of Na CMC. The contents were then q.s to a final concentration of 100 ml. […] Timolol maleate has osmolality of 31 mOsm and Na CMC has a theoretical osmolality of 470 mOsm which mitigated the need to add dextrose to reach osmolality.^18 The pH was assessed by using an electrode and the pH was between 7-8 which prevented the need to add sodium hydroxide to get to the physiological pH. […]

For data set [2] the following is noted: low viscosity ophthalmic solutions; cited from earlier work.
For data set [3] the following is noted: first seven years of use / commercial production of ophthalmic product, cited from earlier work.
The conditions of data set [4]: Example 2; Na CMC value theoretical; cited from earlier work.

With `CC(C)(C)NC[C@H](O)COc1nsnc1N1CCOCC1` [Timolol maleate], the osmolality contribution in data set [1] is on record as 31.4 mOsm. The “share of Timolol that reaches intraocular tissues” value in data set [2] is “less than 5%”. The deaths entry in data set [3] was “Thirty two”; in data set [3] (listed as timolol maleate) it was approximately 37. The osmolality in data set [4] is given as 31 mOsm.
